In this experiment the test system is P388 leukemia ip, CD2F1 mice, survival T/C. The experiment in a line: NCI In Vivo Anticancer Drug Screen. Data for tumor model P388 Leukemia (intraperitoneal) in CD2F1 (CDF1) mice. The following applies: endpoint: median survival time, higher = longer survival. In short, it runs like this: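 Mice carrying the transplanted tumor received test compound or vehicle. Survival was recorded in each group, and the value is the treated-group measurement divided by that of the vehicle-treated control group.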

Where [1] appears, read: dose: 12.5 mg/kg/injection, schedule: Q01DX009 (ip), vehicle: saline.
Where [2] appears, read: dose: 100.0 mg/kg/injection, schedule: Q01DX009 (ip), vehicle: saline.
[3] abbreviates: dose: 100.0 mg/kg/injection, schedule: Q04DX002 (ip), vehicle: saline with Tween-80.
[4] abbreviates: dose: 60.0 mg/kg/injection, schedule: Q01DX005 (ip), vehicle: saline with Tween-80.
The mark [5] stands for this setting: dose: 120.0 mg/kg/injection, schedule: Q01DX005 (ip), vehicle: saline with Tween-80.
Setting [6] is: dose: 50.0 mg/kg/injection, schedule: Q01DX005 (ip), vehicle: Klucel (hydroxypropylcellulose) (HPC).
The mark [7] stands for this setting: dose: 100.0 mg/kg/injection, schedule: Q01DX005 (ip), vehicle: Klucel (hydroxypropylcellulose) (HPC).
Where [8] appears, read: dose: 200.0 mg/kg/injection, schedule: Q01DX005 (ip), vehicle: Klucel (hydroxypropylcellulose) (HPC).
The mark [9] stands for this setting: dose: 25.0 mg/kg/injection, schedule: Q01DX005 (ip), vehicle: Klucel (hydroxypropylcellulose) (HPC).
Setting [10] is: dose: 200.0 mg/kg/injection, schedule: Q04DX002 (ip), vehicle: saline with Tween-80.
Where [11] appears, read: dose: 50.0 mg/kg/injection, schedule: Q01DX009 (ip), vehicle: saline.

Several values for one entry are separate records, joined by “and”; a condition that tells them apart may be missing. Equal values may be shown once. Toxic doses and inconclusive results are not listed.

For the compound `O=NNc1ccc(S(=O)(=O)c2ccccc2)cn1`, the T/C by setting is: (dose: 3.12 mg/kg/injection, schedule: Q01DX009 (ip), vehicle: sodium bicarbonate) 98 % of control; (dose: 6.25 mg/kg/injection, schedule: Q01DX009 (ip), vehicle: sodium bicarbonate) 98 % of control; (dose: 12.5 mg/kg/injection, schedule: Q01DX009 (ip), vehicle: sodium bicarbonate) 94 % of control and 96 % of control; (dose: 25.0 mg/kg/injection, schedule: Q01DX009 (ip), vehicle: sodium bicarbonate) 100 % of control and 104 % of control; (dose: 50.0 mg/kg/injection, schedule: Q01DX009 (ip), vehicle: sodium bicarbonate) 109 % of control; (dose: 100.0 mg/kg/injection, schedule: Q01DX009 (ip), vehicle: sodium bicarbonate) 160 % of control.

For `CCCCCCCCCCCCCCCc1c(NC(C)(CC)[P+](=O)O)c(=O)n(C)n1C` (configuration not stated), the T/C is 112 % of control (dose: 6.25 mg/kg/injection, schedule: Q01DX009 (ip), vehicle: saline); 100 % of control under setting [1]; 101 % of control under setting [2].

Consider `CN(C)C(=S)c1cccc2ccccc12`, for which the T/C was 86 % of control (dose: 50.0 mg/kg/injection, schedule: Q01DX009 (ip), vehicle: saline with Tween-80); 96 % of control (dose: 100.0 mg/kg/injection, schedule: Q01DX009 (ip), vehicle: saline with Tween-80); 114 % of control (dose: 200.0 mg/kg/injection, schedule: Q01DX009 (ip), vehicle: saline with Tween-80).

For `OC1(c2ccncc2)C=CCC1` (configuration not stated), the T/C under setting [3] was 95 % of control.

For `COc1cc(/C=C/[N+](=O)[O-])cc(Br)c1O`, the T/C reads like this: (dose: 30.0 mg/kg/injection, schedule: Q01DX005 (ip), vehicle: saline with Tween-80) 119 % of control; under setting [4], 110 % of control and 113 % of control; under setting [5], 102 % of control and 122 % of control.

As to `CC(C)CC(NC(=O)C(CS)NC(=O)CN1C(=O)CCC1=O)C(N)=O` (configuration not stated), the T/C by setting is: under setting [6], 105 % of control; under setting [7], 100 % of control; under setting [8], 101 % of control.

Turning to `O=[N+]([O-])c1ccc2c(c1)nc(-c1ccccn1)n2CCc1ccncc1`, the T/C by setting is: under setting [9], 95 % of control; under setting [6], 94 % of control; under setting [7], 92 % of control; under setting [8], 91 % of control.

For `O/N=C1/CCN2CCCc3cccc1c32`, the T/C was 95 % of control (dose: 132.0 mg/kg/injection, schedule: Q01DX001 (ip), vehicle: saline with Tween-80); 100 % of control (dose: 200.0 mg/kg/injection, schedule: Q01DX001 (ip), vehicle: saline with Tween-80); 100 % of control (dose: 300.0 mg/kg/injection, schedule: Q01DX001 (ip), vehicle: saline with Tween-80).

Regarding `COc1ccc(CCNC(=O)CCN2C(=O)CCC2=O)cc1OC`, the T/C is 105 % of control (dose: 100.0 mg/kg/injection, schedule: Q01DX009 (ip), vehicle: saline sonified); 105 % of control (dose: 200.0 mg/kg/injection, schedule: Q01DX009 (ip), vehicle: saline sonified); 110 % of control (dose: 400.0 mg/kg/injection, schedule: Q01DX009 (ip), vehicle: saline sonified).

For the compound `O=C(Oc1cccc2cccnc12)c1ccc2ccccc2n1`, the T/C is, setting by setting: under setting [3], 100 % of control; under setting [10], 96 % of control.

Turning to `CC(C)(C)C(=O)OCn1cc2c(=O)[nH]cnc2n1`, the T/C is 101 % of control (dose: 60.0 mg/kg/injection, schedule: Q01DX005 (ip), vehicle: Klucel (hydroxypropylcellulose) (HPC)); 100 % of control (dose: 120.0 mg/kg/injection, schedule: Q01DX005 (ip), vehicle: Klucel (hydroxypropylcellulose) (HPC)); 104 % of control (dose: 240.0 mg/kg/injection, schedule: Q01DX005 (ip), vehicle: Klucel (hydroxypropylcellulose) (HPC)).

In the case of `CC(C)CC(N)C(=O)OCN1C(=O)C2C3C=CC(C2C1=O)C1C2C(=O)N(COC(=O)C(N)CC(C)C)C(=O)C2C31` (configuration not stated), the T/C was 102 % of control and 105 % of control under setting [1]; 105 % of control and 108 % of control (dose: 25.0 mg/kg/injection, schedule: Q01DX009 (ip), vehicle: saline); 109 % of control and 119 % of control under setting [11]; 162 % of control and 177 % of control under setting [2].

As for `CCCC(=O)C(CC)C(O)(C(F)(F)F)C(F)(F)F` (configuration not stated), the T/C reads like this: under setting [11], 104 % of control; under setting [2], 104 % of control; (dose: 200.0 mg/kg/injection, schedule: Q01DX009 (ip), vehicle: saline) 109 % of control.

Turning to `C=CC(C)(C)c1[nH]c2ccccc2c1CC1NC(=O)C(C)NC1=O` (configuration not stated), the T/C runs as follows: (dose: 12.5 mg/kg/injection, schedule: Q01DX009 (ip), vehicle: Klucel (hydroxypropylcellulose) (HPC)) 86 % of control; (dose: 50.0 mg/kg/injection, schedule: Q01DX009 (ip), vehicle: Klucel (hydroxypropylcellulose) (HPC)) 92 % of control.

As to `COc1cccc2c1cc([N+](=O)[O-])c1c(C(=O)O)cc3c(c12)OCO3`, the T/C is 118 % of control (dose: 2.5 mg/kg/injection, schedule: Q01DX009 (ip), vehicle: Klucel (hydroxypropylcellulose) (HPC)); 108 % of control (dose: 2.5 mg/kg/injection, schedule: Q01DX009 (ip), vehicle: saline); 118 % of control (dose: 5.0 mg/kg/injection, schedule: Q01DX009 (ip), vehicle: Klucel (hydroxypropylcellulose) (HPC)); 117 % of control (dose: 5.0 mg/kg/injection, schedule: Q01DX009 (ip), vehicle: saline); 117 % of control (dose: 10.0 mg/kg/injection, schedule: Q01DX009 (ip), vehicle: saline).

For the compound `NC(CCS(=O)(=O)NCc1ccc(S(=O)(=O)F)cc1)C(=O)O` (configuration not stated), the T/C reads like this: (dose: 12.5 mg/kg/injection, schedule: Q01DX009 (ip), vehicle: other) 104 % of control; (dose: 25.0 mg/kg/injection, schedule: Q01DX009 (ip), vehicle: other) 103 % of control; (dose: 50.0 mg/kg/injection, schedule: Q01DX009 (ip), vehicle: other) 100 % of control; (dose: 100.0 mg/kg/injection, schedule: Q01DX009 (ip), vehicle: other) 96 % of control; (dose: 200.0 mg/kg/injection, schedule: Q01DX009 (ip), vehicle: other) 88 % of control.

In the case of `CCN(CC)c1ccc(C(=N)c2ccc(N(CC)CC)cc2)cc1`, the T/C was 101 % of control (dose: 12.5 mg/kg/injection, schedule: Q01DX005 (ip), vehicle: Klucel (hydroxypropylcellulose) (HPC)); 99 % of control under setting [9]; 89 % of control and 90 % of control under setting [6].

In the case of `c1ccc(OCC2CO2)c(OCC2CO2)c1` (configuration not stated), the T/C runs as follows: (dose: 1.88 mg/kg/injection, schedule: Q01DX005 (ip), vehicle: saline with Tween-80) 100 % of control; (dose: 3.75 mg/kg/injection, schedule: Q01DX005 (ip), vehicle: saline with Tween-80) 100 % of control; (dose: 7.5 mg/kg/injection, schedule: Q01DX005 (ip), vehicle: saline with Tween-80) 99 % of control; (dose: 15.0 mg/kg/injection, schedule: Q01DX005 (ip), vehicle: saline with Tween-80) 111 % of control and 114 % of control and 121 % of control; (dose: 25.0 mg/kg/injection, schedule: Q01DX005 (ip), vehicle: saline with Tween-80) 104 % of control; (dose: 50.0 mg/kg/injection, schedule: Q01DX005 (ip), vehicle: saline with Tween-80) 112 % of control. Under “dose: 240.0 mg/kg/injection, schedule: Q01DX005 (ip), vehicle: saline with Tween-80”, the T/C was 156 % of control and 157 % of control and 201 % of control.

In the case of `CN(C)c1ccc(/C=N/NC(=O)c2ccccc2N)c(Cl)c1`, the T/C was 96 % of control under setting [4] and 89 % of control under setting [5].

Turning to `O=C1CSC(c2cccc(Cl)c2Cl)N1c1nncs1` (configuration not stated), the T/C was 112 % of control under setting [3]; 94 % of control under setting [10]; 97 % of control (dose: 400.0 mg/kg/injection, schedule: Q04DX002 (ip), vehicle: saline with Tween-80).

`CNC(=O)OC1/C(C)=C\C(C)C(O)C(OC)CC(C)CC2=C(OC)C(=O)C=C(C2=O)N(C)C(=O)/C(C)=C/C=C\C1OC` (configuration not stated): the T/C (dose: 3.12 mg/kg/injection, schedule: Q01DX009 (ip), vehicle: DMSO) is 110 % of control and 98 % of control; the T/C (dose: 6.25 mg/kg/injection, schedule: Q01DX009 (ip), vehicle: DMSO) is 99 % of control and 109 % of control and 110 % of control; the T/C (dose: 12.5 mg/kg/injection, schedule: Q01DX009 (ip), vehicle: DMSO) is 104 % of control and 122 % of control and 123 % of control; the T/C (dose: 25.0 mg/kg/injection, schedule: Q01DX009 (ip), vehicle: DMSO) is 109 % of control and 115 % of control and 122 % of control.

These data come from PubChem BioAssay AID330 (DTP/NCI, 2004).
